Experimental data: PubChem BioAssay AID2060600 (Molecular Pharmacology Branch, DTP, NCI, 2025)
Values belong to the compound of their own block, whether it stands above or below them.

Tested on: 996289-038-R-J1-PDC complex spheroid viability
Assay: Anticancer human tumor 996289-038-R-J1-PDC patient-derived colon adenocarcinoma cell line growth inhibition [CLK]
Settings: for IC50: curve of first compound; for viability, T/C: stronger effect = lower value
Summary of the method: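 Multi-cell-type spheroids combined patient-derived tumor cells with HUVEC endothelial cells and human mesenchymal stem cells. Paired agents were dosed in half-log steps down from about clinical Cmax, or from 10 microM where Cmax was unknown.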

[1] = second compound 0.0316 µM, first compound 0.0316 µM
[2] = second compound 0.0316 µM, first compound 0.1 µM
[3] = second compound 0.0316 µM, first compound 0.316 µM
[4] = second compound 0.0316 µM, first compound 1 µM
[5] = second compound 0.0316 µM, first compound 3.16 µM
[6] = second compound 0.0316 µM, first compound 10 µM
[7] = second compound 0.1 µM, first compound 0.0316 µM
[8] = second compound 0.1 µM, first compound 0.1 µM
[9] = second compound 0.1 µM, first compound 0.316 µM
[10] = second compound 0.1 µM, first compound 1 µM
[11] = second compound 0.1 µM, first compound 3.16 µM
[12] = second compound 0.1 µM, first compound 10 µM
[13] = second compound 0.316 µM, first compound 0.0316 µM
[14] = second compound 0.316 µM, first compound 0.1 µM
[15] = second compound 0.316 µM, first compound 0.316 µM
[16] = second compound 0.316 µM, first compound 1 µM
[17] = second compound 0.316 µM, first compound 3.16 µM
[18] = second compound 0.316 µM, first compound 10 µM
[19] = second compound 1 µM, first compound 0.0316 µM
[20] = second compound 1 µM, first compound 0.1 µM
[21] = second compound 1 µM, first compound 0.316 µM
[22] = second compound 1 µM, first compound 1 µM
[23] = second compound 1 µM, first compound 3.16 µM
[24] = second compound 1 µM, first compound 10 µM
[25] = second compound 3.16 µM, first compound 0.0316 µM
[26] = second compound 3.16 µM, first compound 0.1 µM
[27] = second compound 3.16 µM, first compound 0.316 µM
[28] = second compound 3.16 µM, first compound 1 µM
[29] = second compound 3.16 µM, first compound 3.16 µM
[30] = second compound 3.16 µM, first compound 10 µM
[31] = second compound 10 µM, first compound 0.0316 µM
[32] = second compound 10 µM, first compound 0.1 µM
[33] = second compound 10 µM, first compound 0.316 µM
[34] = second compound 10 µM, first compound 1 µM
[35] = second compound 10 µM, first compound 3.16 µM
[36] = second compound 10 µM, first compound 10 µM
[37] = second compound 0.0316 µM, first compound 0.00316 µM
[38] = second compound 0.0316 µM, first compound 0.01 µM
[39] = second compound 0.1 µM, first compound 0.00316 µM
[40] = second compound 0.1 µM, first compound 0.01 µM
[41] = second compound 0.316 µM, first compound 0.00316 µM
[42] = second compound 0.316 µM, first compound 0.01 µM
[43] = second compound 1 µM, first compound 0.00316 µM
[44] = second compound 1 µM, first compound 0.01 µM
[45] = second compound 3.16 µM, first compound 0.00316 µM
[46] = second compound 3.16 µM, first compound 0.01 µM
[47] = second compound 10 µM, first compound 0.00316 µM
[48] = second compound 10 µM, first compound 0.01 µM
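Also: spheroids exposed to the agents for 7 days before readout.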

IC50 (second compound 0.0316 µM): > 10000 nM
IC50 (second compound 0.1 µM): > 10000 nM
IC50 (second compound 0.316 µM): > 10000 nM
IC50 (second compound 1 µM): > 10000 nM
IC50 (second compound 3.16 µM): > 10000 nM
IC50 (second compound 10 µM): > 10000 nM
Structure (SMILES): CC(=O)O[C@H]1C(=O)[C@@]2(C)[C@H]([C@H](OC(=O)c3ccccc3)[C@]3(O)C[C@H](OC(=O)[C@H](O)[C@@H](NC(=O)c4ccccc4)c4ccccc4)C(C)=C1C3(C)C)[C@]1(OC(C)=O)CO[C@@H]1C[C@@H]2O + CNC(=O)c1ccc(Nc2nc(OC3CCCC3)c3c(-c4ccc5nc(C)oc5c4)c[nH]c3n2)c(OC)c1
viability, T/C [1]: 109%
viability, T/C [2]: 103%
viability, T/C [3]: 79.9%
viability, T/C [4]: 70.3%
viability, T/C [5]: 67.4%
viability, T/C [6]: 64.6%
viability, T/C [7]: 110%
viability, T/C [8]: 96%
viability, T/C [9]: 80%
viability, T/C [10]: 79.2%
viability, T/C [11]: 74.8%
viability, T/C [12]: 65.4%
viability, T/C [13]: 68.6%
viability, T/C [14]: 70.3%
viability, T/C [15]: 65.6%
viability, T/C [16]: 66.3%
viability, T/C [17]: 69.2%
viability, T/C [18]: 73.3%
viability, T/C [19]: 63.2%
viability, T/C [20]: 59%
viability, T/C [21]: 57.5%
viability, T/C [22]: 53.5%
viability, T/C [23]: 62.9%
viability, T/C [24]: 61.8%
viability, T/C [25]: 59.6%
viability, T/C [26]: 55%
viability, T/C [27]: 54%
viability, T/C [28]: 54.3%
viability, T/C [29]: 59%
viability, T/C [30]: 65.2%
viability, T/C [31]: 56.7%
viability, T/C [32]: 53.5%
viability, T/C [33]: 55.2%
viability, T/C [34]: 53.8%
viability, T/C [35]: 59.6%
viability, T/C [36]: 53.7%

IC50 (second compound 0.0316 µM): > 10000 nM
IC50 (second compound 0.1 µM): > 10000 nM
IC50 (second compound 0.316 µM): > 10000 nM
IC50 (second compound 1 µM): 1230 nM
IC50 (second compound 3.16 µM): 674 nM
IC50 (second compound 10 µM): 639 nM
Structure (SMILES): Nc1ccn(C2OC(CO)C(O)C2(F)F)c(=O)n1 (stereo not given) + CNC(=O)c1ccc(Nc2nc(OC3CCCC3)c3c(-c4ccc5nc(C)oc5c4)c[nH]c3n2)c(OC)c1
viability, T/C [1]: 93.1%
viability, T/C [2]: 82.7%
viability, T/C [3]: 67.1%
viability, T/C [4]: 70%
viability, T/C [5]: 65.1%
viability, T/C [6]: 56.4%
viability, T/C [7]: 108%
viability, T/C [8]: 85.3%
viability, T/C [9]: 67.9%
viability, T/C [10]: 68%
viability, T/C [11]: 66.7%
viability, T/C [12]: 54.9%
viability, T/C [13]: 79.8%
viability, T/C [14]: 70.5%
viability, T/C [15]: 65.4%
viability, T/C [16]: 56.1%
viability, T/C [17]: 55.3%
viability, T/C [18]: 52.2%
viability, T/C [19]: 68.8%
viability, T/C [20]: 63.4%
viability, T/C [21]: 54.6%
viability, T/C [22]: 50%
viability, T/C [23]: 48.9%
viability, T/C [24]: 41.4%
viability, T/C [25]: 65.3%
viability, T/C [26]: 54.2%
viability, T/C [27]: 52.6%
viability, T/C [28]: 49.3%
viability, T/C [29]: 47.2%
viability, T/C [30]: 36.9%
viability, T/C [31]: 61.5%
viability, T/C [32]: 57.6%
viability, T/C [33]: 48.4%
viability, T/C [34]: 49.4%
viability, T/C [35]: 46.9%
viability, T/C [36]: 35.2%

IC50 (second compound 0.0316 µM): > 10000 nM
IC50 (second compound 0.1 µM): > 10000 nM
IC50 (second compound 0.316 µM): > 10000 nM
IC50 (second compound 1 µM): 3470 nM
IC50 (second compound 3.16 µM): 3470 nM
IC50 (second compound 10 µM): 1600 nM
Structure (SMILES): O=c1[nH]cc(F)c(=O)[nH]1 + CNC(=O)c1ccc(Nc2nc(OC3CCCC3)c3c(-c4ccc5nc(C)oc5c4)c[nH]c3n2)c(OC)c1
viability, T/C [1]: 108%
viability, T/C [2]: 111%
viability, T/C [3]: 87.5%
viability, T/C [4]: 86.6%
viability, T/C [5]: 86.1%
viability, T/C [6]: 77.8%
viability, T/C [7]: 122%
viability, T/C [8]: 105%
viability, T/C [9]: 86.1%
viability, T/C [10]: 82.1%
viability, T/C [11]: 81.3%
viability, T/C [12]: 74.5%
viability, T/C [13]: 80.8%
viability, T/C [14]: 77%
viability, T/C [15]: 72.5%
viability, T/C [16]: 69.6%
viability, T/C [17]: 63.8%
viability, T/C [18]: 59.1%
viability, T/C [19]: 62.9%
viability, T/C [20]: 61.2%
viability, T/C [21]: 59.5%
viability, T/C [22]: 53.6%
viability, T/C [23]: 50.3%
viability, T/C [24]: 45.5%
viability, T/C [25]: 61.9%
viability, T/C [26]: 60%
viability, T/C [27]: 55.8%
viability, T/C [28]: 51%
viability, T/C [29]: 53.3%
viability, T/C [30]: 46.1%
viability, T/C [31]: 60.4%
viability, T/C [32]: 53.9%
viability, T/C [33]: 59.2%
viability, T/C [34]: 48%
viability, T/C [35]: 47.5%
viability, T/C [36]: 46.7%

More lines, now with the values behind:

Structure (SMILES): CCc1c2c(nc3ccc(O)cc13)-c1cc3c(c(=O)n1C2)COC(=O)[C@]3(O)CC + CNC(=O)c1ccc(Nc2nc(OC3CCCC3)c3c(-c4ccc5nc(C)oc5c4)c[nH]c3n2)c(OC)c1
IC50 (second compound 0.0316 µM): 203 nM
IC50 (second compound 0.1 µM): 239 nM
IC50 (second compound 0.316 µM): 72.3 nM
IC50 (second compound 1 µM): 15.8 nM
IC50 (second compound 3.16 µM): 8.28 nM
IC50 (second compound 10 µM): 8.57 nM
viability, T/C [37]: 115%
viability, T/C [38]: 89.4%
viability, T/C [1]: 63.3%
viability, T/C [2]: 61.6%
viability, T/C [3]: 48.8%
viability, T/C [4]: 29.3%
viability, T/C [39]: 110%
viability, T/C [40]: 96.2%
viability, T/C [7]: 69.9%
viability, T/C [8]: 63.3%
viability, T/C [9]: 49%
viability, T/C [10]: 31.6%
viability, T/C [41]: 77.4%
viability, T/C [42]: 68.1%
viability, T/C [13]: 56.2%
viability, T/C [14]: 48.1%
viability, T/C [15]: 35.6%
viability, T/C [16]: 21.9%
viability, T/C [43]: 60.8%
viability, T/C [44]: 52.1%
viability, T/C [19]: 46.6%
viability, T/C [20]: 33.1%
viability, T/C [21]: 25.1%
viability, T/C [22]: 13.5%
viability, T/C [45]: 55.5%
viability, T/C [46]: 50.2%
viability, T/C [25]: 39%
viability, T/C [26]: 31.2%
viability, T/C [27]: 22%
viability, T/C [28]: 12.8%
viability, T/C [47]: 54.6%
viability, T/C [48]: 52%
viability, T/C [31]: 38.9%
viability, T/C [32]: 32.8%
viability, T/C [33]: 23.7%
viability, T/C [34]: 10.8%

Structure (SMILES): Cn1ncnc1[C@H]1c2n[nH]c(=O)c3cc(F)cc(c23)N[C@@H]1c1ccc(F)cc1 + CNC(=O)c1ccc(Nc2nc(OC3CCCC3)c3c(-c4ccc5nc(C)oc5c4)c[nH]c3n2)c(OC)c1
IC50 (second compound 0.0316 µM): > 100 nM
IC50 (second compound 0.1 µM): > 100 nM
IC50 (second compound 0.316 µM): > 100 nM
IC50 (second compound 1 µM): > 100 nM
IC50 (second compound 3.16 µM): > 100 nM
IC50 (second compound 10 µM): > 100 nM
viability, T/C (second compound 0.0316 µM, first compound 0.000316 µM): 127%
viability, T/C (second compound 0.0316 µM, first compound 0.001 µM): 114%
viability, T/C [37]: 118%
viability, T/C [38]: 124%
viability, T/C [1]: 133%
viability, T/C [2]: 108%
viability, T/C (second compound 0.1 µM, first compound 0.000316 µM): 127%
viability, T/C (second compound 0.1 µM, first compound 0.001 µM): 124%
viability, T/C [39]: 128%
viability, T/C [40]: 134%
viability, T/C [7]: 124%
viability, T/C [8]: 105%
viability, T/C (second compound 0.316 µM, first compound 0.000316 µM): 86.6%
viability, T/C (second compound 0.316 µM, first compound 0.001 µM): 80.5%
viability, T/C [41]: 81.6%
viability, T/C [42]: 78.8%
viability, T/C [13]: 80.9%
viability, T/C [14]: 74.9%
viability, T/C (second compound 1 µM, first compound 0.000316 µM): 74.8%
viability, T/C (second compound 1 µM, first compound 0.001 µM): 67.4%
viability, T/C [43]: 65.7%
viability, T/C [44]: 64%
viability, T/C [19]: 65.5%
viability, T/C [20]: 58.6%
viability, T/C (second compound 3.16 µM, first compound 0.000316 µM): 63.7%
viability, T/C (second compound 3.16 µM, first compound 0.001 µM): 59.3%
viability, T/C [45]: 59%
viability, T/C [46]: 58.5%
viability, T/C [25]: 63.7%
viability, T/C [26]: 55%
viability, T/C (second compound 10 µM, first compound 0.000316 µM): 66.1%
viability, T/C (second compound 10 µM, first compound 0.001 µM): 60.4%
viability, T/C [47]: 59.7%
viability, T/C [48]: 63%
viability, T/C [31]: 63%
viability, T/C [32]: 55.7%
